From the OPERA property sets (Mansouri et al. 2018)

Row | logP | Structure (SMILES)
1 | 4.76 | CC=CC#CC#Cc1ccccc1
2 | 4.91 | CC#CC#CC#Cc1ccccc1
3 | 3.91 | CC=CC#CC#CC#CC=CC(Cl)CO (stereo unspecified)
4 | 2.45 | CC=CC#CC#CC=CC(=O)OC
5 | 2.48 | OCC=CC#CC#Cc1ccccc1
6 | 3.09 | O=CC=CC#CC#Cc1ccccc1
7 | 2.09 | CC=CC#CC=C1C=CC(=O)O1
8 | 5.15 | C=CC#Cc1ccc(-c2cccs2)s1
9 | 4.6 | CC#CC#Cc1ccc(C#CC(Cl)COC(C)=O)s1 (stereo unspecified)
10 | 3.85 | CC#CC#CC#CC=CC(=O)OC

Row | Structure (SMILES) | logP
11 | c1csc(-c2ccc(-c3cccs3)s2)c1 | 5.57
